According to ChEMBL document CHEMBL5291721, “A preclinical secondary pharmacology resource illuminates target-adverse drug reaction associations of marketed drugs” (Nat Commun, 2023):

Assays:
Progesterone receptor = target: T1, Progesterone receptor (Homo sapiens, UniProt P06401)
T1 sequence (P06401 whole entry): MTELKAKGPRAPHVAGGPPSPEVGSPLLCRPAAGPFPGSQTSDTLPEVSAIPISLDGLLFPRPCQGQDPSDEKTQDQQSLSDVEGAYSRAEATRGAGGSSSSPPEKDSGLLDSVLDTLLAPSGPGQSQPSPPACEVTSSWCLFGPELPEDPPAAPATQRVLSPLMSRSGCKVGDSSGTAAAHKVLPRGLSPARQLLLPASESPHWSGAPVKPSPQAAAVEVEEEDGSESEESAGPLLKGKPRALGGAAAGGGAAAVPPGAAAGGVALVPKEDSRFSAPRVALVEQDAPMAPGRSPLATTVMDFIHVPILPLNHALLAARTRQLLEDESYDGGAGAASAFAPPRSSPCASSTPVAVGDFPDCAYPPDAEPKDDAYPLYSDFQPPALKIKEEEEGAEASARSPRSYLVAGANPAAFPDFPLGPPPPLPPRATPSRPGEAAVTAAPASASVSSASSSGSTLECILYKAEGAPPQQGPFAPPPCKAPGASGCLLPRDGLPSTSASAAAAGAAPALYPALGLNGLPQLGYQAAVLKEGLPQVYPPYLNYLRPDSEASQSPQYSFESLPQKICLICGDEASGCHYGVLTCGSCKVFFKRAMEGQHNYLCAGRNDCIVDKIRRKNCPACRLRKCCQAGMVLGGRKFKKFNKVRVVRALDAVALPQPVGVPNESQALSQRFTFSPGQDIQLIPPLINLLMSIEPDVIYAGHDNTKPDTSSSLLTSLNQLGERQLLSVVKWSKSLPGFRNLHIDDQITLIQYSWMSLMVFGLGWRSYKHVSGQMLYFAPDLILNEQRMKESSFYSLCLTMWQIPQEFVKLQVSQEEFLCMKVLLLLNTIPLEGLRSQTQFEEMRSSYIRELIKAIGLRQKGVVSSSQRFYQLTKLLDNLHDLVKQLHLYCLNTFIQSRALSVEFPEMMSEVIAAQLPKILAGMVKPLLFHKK

Histamine H3 receptor = Histamine H3 receptor (Homo sapiens, UniProt Q9Y5N1)
Histamine H3 receptor, sequence (Q9Y5N1 whole entry): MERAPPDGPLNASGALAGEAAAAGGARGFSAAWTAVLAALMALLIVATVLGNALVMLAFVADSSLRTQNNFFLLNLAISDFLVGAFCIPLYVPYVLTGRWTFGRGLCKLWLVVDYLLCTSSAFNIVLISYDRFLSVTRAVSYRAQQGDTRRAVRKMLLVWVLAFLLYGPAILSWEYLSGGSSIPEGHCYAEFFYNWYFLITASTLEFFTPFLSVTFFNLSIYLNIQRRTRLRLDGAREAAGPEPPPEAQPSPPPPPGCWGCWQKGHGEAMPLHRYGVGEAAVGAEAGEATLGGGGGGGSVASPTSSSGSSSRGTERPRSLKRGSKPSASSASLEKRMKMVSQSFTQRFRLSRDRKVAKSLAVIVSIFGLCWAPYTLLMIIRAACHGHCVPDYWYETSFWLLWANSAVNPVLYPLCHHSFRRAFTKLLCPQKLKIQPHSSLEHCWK

[1] = target: Sodium-dependent dopamine transporter (Homo sapiens, UniProt Q01959)
Sodium-dependent dopamine transporter, sequence (Q01959 whole entry): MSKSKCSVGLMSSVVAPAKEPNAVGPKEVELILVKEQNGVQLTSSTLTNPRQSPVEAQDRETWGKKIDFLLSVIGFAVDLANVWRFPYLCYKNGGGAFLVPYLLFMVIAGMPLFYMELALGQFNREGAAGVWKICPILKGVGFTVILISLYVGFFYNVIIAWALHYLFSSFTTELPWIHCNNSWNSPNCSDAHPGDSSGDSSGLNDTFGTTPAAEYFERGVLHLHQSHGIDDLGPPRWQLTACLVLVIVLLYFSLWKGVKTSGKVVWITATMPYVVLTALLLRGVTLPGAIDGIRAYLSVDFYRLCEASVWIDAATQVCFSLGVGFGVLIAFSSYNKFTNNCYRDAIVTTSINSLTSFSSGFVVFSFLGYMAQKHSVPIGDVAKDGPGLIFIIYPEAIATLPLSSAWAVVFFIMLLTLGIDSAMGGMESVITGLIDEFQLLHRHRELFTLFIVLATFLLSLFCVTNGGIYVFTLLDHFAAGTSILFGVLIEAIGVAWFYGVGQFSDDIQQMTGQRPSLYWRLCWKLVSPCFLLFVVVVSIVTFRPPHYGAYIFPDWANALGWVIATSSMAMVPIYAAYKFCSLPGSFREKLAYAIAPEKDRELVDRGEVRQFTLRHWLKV

[2] = target: T2, Muscarinic acetylcholine receptor M2 (Homo sapiens, UniProt P08172)
T2 sequence (P08172 whole entry): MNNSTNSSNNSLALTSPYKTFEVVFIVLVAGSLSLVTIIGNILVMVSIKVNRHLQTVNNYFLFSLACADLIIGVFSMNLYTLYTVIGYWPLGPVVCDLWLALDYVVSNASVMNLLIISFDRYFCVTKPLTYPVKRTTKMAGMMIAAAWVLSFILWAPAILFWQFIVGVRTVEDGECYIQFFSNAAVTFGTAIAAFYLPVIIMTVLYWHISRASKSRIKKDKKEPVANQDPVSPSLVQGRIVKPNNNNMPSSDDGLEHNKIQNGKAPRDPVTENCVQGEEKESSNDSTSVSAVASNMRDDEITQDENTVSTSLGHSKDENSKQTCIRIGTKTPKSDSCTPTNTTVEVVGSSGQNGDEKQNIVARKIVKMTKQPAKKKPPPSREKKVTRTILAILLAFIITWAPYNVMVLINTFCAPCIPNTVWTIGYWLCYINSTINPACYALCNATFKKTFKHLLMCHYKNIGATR

[3] = target: Gamma-aminobutyric acid receptor subunit alpha-1/alpha-2/beta-2/gamma-2 (Homo sapiens, UniProt P14867+P18507+P47869+P47870); format: protein-complex assay
Gamma-aminobutyric acid receptor subunit alpha-1/alpha-2/beta-2/gamma-2, sequence (P14867 whole entry): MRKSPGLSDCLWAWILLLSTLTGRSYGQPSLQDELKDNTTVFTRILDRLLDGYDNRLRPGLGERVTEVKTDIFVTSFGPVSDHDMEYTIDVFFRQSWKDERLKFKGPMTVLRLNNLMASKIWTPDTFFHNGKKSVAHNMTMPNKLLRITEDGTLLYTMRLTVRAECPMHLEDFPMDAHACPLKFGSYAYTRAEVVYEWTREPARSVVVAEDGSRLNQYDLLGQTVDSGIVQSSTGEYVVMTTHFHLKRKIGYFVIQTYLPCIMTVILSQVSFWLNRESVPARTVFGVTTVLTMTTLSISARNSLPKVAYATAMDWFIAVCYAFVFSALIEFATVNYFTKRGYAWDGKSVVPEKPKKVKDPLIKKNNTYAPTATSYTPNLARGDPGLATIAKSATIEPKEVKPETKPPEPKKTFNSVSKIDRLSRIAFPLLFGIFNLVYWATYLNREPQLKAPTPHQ
Gamma-aminobutyric acid receptor subunit alpha-1/alpha-2/beta-2/gamma-2, sequence (P47870 whole entry): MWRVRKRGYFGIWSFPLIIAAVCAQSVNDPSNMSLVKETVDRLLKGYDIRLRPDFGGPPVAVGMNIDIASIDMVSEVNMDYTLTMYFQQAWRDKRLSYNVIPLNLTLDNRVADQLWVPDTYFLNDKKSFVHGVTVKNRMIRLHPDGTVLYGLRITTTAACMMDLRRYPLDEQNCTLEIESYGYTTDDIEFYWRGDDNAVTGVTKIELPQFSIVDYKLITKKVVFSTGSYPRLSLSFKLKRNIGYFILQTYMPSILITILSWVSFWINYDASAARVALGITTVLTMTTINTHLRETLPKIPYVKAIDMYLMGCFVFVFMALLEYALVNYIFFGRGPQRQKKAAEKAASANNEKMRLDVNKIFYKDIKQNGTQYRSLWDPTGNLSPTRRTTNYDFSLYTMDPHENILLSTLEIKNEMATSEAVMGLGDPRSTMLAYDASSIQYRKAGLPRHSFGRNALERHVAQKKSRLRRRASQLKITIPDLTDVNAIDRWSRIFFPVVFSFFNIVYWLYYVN
Gamma-aminobutyric acid receptor subunit alpha-1/alpha-2/beta-2/gamma-2, sequence (P18507 whole entry): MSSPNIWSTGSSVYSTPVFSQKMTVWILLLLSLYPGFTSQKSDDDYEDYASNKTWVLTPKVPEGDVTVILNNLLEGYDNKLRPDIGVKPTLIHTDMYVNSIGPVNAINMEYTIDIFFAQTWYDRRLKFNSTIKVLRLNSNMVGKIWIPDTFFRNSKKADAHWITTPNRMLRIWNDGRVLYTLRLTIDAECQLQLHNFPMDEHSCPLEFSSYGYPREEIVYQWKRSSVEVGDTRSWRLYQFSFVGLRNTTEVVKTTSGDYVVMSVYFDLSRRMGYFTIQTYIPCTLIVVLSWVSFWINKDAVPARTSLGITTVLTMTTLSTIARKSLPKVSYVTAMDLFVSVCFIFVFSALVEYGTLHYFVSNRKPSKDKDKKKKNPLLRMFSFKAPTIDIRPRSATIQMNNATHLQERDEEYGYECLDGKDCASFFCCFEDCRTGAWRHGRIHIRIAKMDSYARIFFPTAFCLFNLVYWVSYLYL
Gamma-aminobutyric acid receptor subunit alpha-1/alpha-2/beta-2/gamma-2, sequence (P47869 whole entry): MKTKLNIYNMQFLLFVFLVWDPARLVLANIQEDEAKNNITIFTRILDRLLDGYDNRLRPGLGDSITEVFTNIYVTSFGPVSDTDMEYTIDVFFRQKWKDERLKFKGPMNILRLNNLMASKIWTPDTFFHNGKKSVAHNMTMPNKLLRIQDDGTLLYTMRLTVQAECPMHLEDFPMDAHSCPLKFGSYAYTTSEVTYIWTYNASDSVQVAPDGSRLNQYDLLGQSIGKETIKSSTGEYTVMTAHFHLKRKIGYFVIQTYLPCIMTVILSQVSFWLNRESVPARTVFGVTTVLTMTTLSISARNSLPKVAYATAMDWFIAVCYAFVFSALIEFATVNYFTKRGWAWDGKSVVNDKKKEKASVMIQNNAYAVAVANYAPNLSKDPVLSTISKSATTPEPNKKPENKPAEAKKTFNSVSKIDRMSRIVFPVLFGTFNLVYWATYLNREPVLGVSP

[4] = target: Voltage-gated inwardly rectifying potassium channel KCNH2 (Homo sapiens, UniProt Q12809); format: functional
Voltage-gated inwardly rectifying potassium channel KCNH2, sequence (Q12809 whole entry): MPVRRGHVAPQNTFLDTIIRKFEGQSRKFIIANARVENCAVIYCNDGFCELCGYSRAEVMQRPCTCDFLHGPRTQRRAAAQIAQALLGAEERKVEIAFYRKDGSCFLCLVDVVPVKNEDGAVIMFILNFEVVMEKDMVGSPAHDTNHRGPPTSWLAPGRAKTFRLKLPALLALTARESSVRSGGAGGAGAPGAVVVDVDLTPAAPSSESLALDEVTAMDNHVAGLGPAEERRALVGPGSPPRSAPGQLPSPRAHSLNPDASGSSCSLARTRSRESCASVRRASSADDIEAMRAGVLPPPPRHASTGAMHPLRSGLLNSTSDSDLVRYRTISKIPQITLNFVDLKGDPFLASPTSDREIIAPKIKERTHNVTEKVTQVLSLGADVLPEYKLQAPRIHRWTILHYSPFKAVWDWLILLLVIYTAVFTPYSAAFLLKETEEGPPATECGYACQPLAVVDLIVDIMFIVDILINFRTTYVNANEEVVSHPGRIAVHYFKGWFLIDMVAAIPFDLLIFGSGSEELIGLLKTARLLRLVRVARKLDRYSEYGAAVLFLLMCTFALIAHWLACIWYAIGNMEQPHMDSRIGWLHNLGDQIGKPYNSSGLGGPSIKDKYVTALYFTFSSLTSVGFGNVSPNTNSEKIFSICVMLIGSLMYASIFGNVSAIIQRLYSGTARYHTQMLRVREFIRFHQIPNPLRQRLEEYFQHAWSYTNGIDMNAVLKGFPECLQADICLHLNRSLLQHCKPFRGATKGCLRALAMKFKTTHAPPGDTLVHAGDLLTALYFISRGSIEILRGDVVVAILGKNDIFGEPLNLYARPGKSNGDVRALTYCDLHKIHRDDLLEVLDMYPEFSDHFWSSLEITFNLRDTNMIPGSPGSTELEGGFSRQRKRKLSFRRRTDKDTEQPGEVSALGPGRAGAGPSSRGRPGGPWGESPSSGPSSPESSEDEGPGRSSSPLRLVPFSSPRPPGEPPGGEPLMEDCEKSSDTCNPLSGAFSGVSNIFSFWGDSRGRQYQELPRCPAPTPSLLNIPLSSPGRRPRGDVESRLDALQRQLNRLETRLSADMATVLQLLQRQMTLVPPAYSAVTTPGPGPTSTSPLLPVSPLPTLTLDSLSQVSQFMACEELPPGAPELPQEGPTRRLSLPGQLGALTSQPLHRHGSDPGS

Mu-type opioid receptor = Mu-type opioid receptor (Homo sapiens, UniProt P35372)
Mu-type opioid receptor, sequence (P35372 whole entry): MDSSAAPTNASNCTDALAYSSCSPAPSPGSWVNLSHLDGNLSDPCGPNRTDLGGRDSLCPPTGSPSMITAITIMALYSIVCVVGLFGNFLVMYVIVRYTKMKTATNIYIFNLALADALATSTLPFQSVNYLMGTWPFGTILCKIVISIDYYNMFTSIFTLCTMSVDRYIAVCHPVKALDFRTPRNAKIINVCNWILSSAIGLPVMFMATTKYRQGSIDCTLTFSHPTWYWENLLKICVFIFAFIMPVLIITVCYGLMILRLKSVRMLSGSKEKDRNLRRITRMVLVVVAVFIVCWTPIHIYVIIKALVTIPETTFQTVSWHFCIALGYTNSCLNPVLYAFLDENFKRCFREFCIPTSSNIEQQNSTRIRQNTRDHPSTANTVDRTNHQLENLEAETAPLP

B2 bradykinin receptor = target: T3, B2 bradykinin receptor (Homo sapiens, UniProt P30411)
T3 sequence (P30411 whole entry): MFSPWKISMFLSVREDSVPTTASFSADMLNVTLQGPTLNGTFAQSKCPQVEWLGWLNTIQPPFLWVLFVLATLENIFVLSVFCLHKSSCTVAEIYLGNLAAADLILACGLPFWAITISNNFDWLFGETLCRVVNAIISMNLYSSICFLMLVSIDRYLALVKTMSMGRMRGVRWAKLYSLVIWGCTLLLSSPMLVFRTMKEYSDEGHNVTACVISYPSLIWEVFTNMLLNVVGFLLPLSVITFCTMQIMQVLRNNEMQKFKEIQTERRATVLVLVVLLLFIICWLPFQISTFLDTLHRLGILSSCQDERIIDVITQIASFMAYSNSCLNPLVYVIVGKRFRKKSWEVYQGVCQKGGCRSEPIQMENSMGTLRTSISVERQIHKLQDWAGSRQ

[5] = target: 3',5'-cyclic-AMP phosphodiesterase 4D (Homo sapiens, UniProt Q08499); format: functional
Motilin receptor = Motilin receptor (Homo sapiens, UniProt O43193)
Motilin receptor, sequence (O43193 whole entry): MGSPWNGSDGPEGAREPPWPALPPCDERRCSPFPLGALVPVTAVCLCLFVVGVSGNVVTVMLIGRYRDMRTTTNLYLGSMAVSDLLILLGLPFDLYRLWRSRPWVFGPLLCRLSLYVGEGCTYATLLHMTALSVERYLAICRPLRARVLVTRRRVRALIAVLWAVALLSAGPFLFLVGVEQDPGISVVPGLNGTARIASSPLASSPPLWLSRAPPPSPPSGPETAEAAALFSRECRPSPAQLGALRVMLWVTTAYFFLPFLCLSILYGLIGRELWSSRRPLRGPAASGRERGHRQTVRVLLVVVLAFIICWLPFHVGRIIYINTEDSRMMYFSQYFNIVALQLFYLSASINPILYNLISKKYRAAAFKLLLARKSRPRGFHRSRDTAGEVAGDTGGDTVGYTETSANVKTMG

[6] = target: T4, Neuropeptide Y receptor type 1 (Homo sapiens, UniProt P25929)
T4 sequence (P25929 whole entry): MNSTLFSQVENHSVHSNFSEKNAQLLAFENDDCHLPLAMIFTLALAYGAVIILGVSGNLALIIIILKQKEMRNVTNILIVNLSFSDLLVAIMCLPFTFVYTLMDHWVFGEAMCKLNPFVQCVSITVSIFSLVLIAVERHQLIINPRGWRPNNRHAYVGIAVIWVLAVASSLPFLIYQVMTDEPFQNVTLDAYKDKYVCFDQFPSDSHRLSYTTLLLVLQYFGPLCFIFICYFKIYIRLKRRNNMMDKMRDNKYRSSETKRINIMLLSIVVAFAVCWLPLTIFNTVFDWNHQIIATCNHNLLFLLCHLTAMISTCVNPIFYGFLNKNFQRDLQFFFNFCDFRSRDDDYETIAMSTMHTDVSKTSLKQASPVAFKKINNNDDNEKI

Thromboxane A2 receptor = target: T5, Thromboxane A2 receptor (Homo sapiens, UniProt P21731)
T5 sequence (P21731 whole entry): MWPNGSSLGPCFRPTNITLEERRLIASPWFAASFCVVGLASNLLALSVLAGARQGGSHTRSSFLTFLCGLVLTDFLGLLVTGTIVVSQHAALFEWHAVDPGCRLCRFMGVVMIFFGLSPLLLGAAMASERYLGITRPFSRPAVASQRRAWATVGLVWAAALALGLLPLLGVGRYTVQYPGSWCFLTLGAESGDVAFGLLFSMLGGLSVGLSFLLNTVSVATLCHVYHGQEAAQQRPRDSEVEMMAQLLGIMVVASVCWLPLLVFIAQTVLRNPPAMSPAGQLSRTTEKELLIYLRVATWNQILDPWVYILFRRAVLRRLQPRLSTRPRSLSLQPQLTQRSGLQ
Also: assay procedure not described here.

| AC50 (B2 bradykinin receptor) [µM] | AC50 [5] [µM] | AC50 (Motilin receptor) [µM] | AC50 [6] [µM] | AC50 (Thromboxane A2 receptor) [µM] | Molecule | AC50 (Progesterone receptor) [µM] | AC50 (Histamine H3 receptor) [µM] | AC50 [1] [µM] | AC50 [2] [µM] | AC50 [3] [µM] | AC50 ([4]; read-out: AC50) [µM] | AC50 (Mu-type opioid receptor) [µM] | AC50 ([4]; human, cellular components) [µM] |
| --- | --- | --- | --- | --- | --- | --- | --- | --- | --- | --- | --- | --- | --- |
|  |  |  |  |  | Nc1ccc(S(N)(=O)=O)cc1 [SULFANILAMIDE] | > 30 | > 30 | > 30 | > 30 |  |  |  |  |
|  |  |  |  |  | CN(C)c1ccc(C(=C2C=CC(=[N+](C)C)C=C2)c2ccc(N(C)C)cc2)cc1 [GENTIAN VIOLET] | 1.67 | 4.71 | 3.4 | 0.478 | > 3 | 1 | 3.9 |  |
| > 30 | > 30 | > 30 | > 30 | > 30 | HYDROXOCOBALAMIN |  |  |  |  |  |  |  | > 30 |
